Experimental data: patent US5656603A (Loyola University of Chicago, priority 1995, dated 1997)

Experiments:
Format in all cases: biochemical
[1] = target: T1, recombinant E. coli aminopeptidase P (Escherichia coli, UniProt P15034); test: Aminopeptidase P inhibition, release of arginine from Arg-Pro-Pro (fluorescent assay)
T1 construct: supplied by Dr. Tadashi Yoshimoto (Nagasaki University)
From the text: (§1) Enzymes--Membrane-bound aminopeptidase P was purified to homogeneity from bovine lung (14) and from rat lung. Partially purified membrane-bound aminopeptidase P from human lung was obtained by treatment of lung microsomes with phosphatidylinositol-specific phospholipase C (B. thuringiensis) (ICN, Costa Mesa, Calif.) followed by centrifugation as described previously (14). Membrane dipeptidase was purified from rat lung microsomes (manuscript in preparation). Recombinant E. coli aminopeptidase P (22) and purified lamb kidney prolyl oligopeptidase (23) were generally supplied by Dr. Tadashi Yoshimoto (Nagasaki University). Purified porcine kidney prolidase and purified porcine kidney aminopeptidase M was obtained from Sigma (St. Louis, Mo.).
(§2) Enzyme Kinetics--Aminopeptidase P activity was determined by measuring the release of arginine from Arg-Pro-Pro by a fluorescent assay described previously (14). […] Each mixture was run in duplicate. Aliquots were removed from each incubation mixture at various times and assayed for the amount of arginine present to determine the reaction velocity. In general, reaction velocities were calculated from data representing less than 20% cleavage of substrate. Ki and Ki ' (=αKi) were determined from plots of 1/v versus concentration of inhibitor "i" (26) and S/v versus concentration of inhibitor "i" (27), respectively. These parameters were also determined from the slope replot and 1/v-intercept replot, respectively, of the 1/v versus 1/S plot (28). See e.g., FIG. 1B. The values from the two treatments of the data were averaged for each experiment. Experiments for each enzyme preparation were performed twice and the results averaged.

[2] = target: T2, aminopeptidase A (EC 3.4.11.7) (Rattus norvegicus, UniProt P50123); test: Specificity of apstatin: aminopeptidase A; conditions: rat lung microsomes; α-Glu-β-Na, pH 6.8, HPLC-1
T2 construct: aminopeptidase A (EC 3.4.11.7) (rat lung microsomes); from tissue; host or cells: rat lung microsomes
T2 sequence (P50123 whole entry): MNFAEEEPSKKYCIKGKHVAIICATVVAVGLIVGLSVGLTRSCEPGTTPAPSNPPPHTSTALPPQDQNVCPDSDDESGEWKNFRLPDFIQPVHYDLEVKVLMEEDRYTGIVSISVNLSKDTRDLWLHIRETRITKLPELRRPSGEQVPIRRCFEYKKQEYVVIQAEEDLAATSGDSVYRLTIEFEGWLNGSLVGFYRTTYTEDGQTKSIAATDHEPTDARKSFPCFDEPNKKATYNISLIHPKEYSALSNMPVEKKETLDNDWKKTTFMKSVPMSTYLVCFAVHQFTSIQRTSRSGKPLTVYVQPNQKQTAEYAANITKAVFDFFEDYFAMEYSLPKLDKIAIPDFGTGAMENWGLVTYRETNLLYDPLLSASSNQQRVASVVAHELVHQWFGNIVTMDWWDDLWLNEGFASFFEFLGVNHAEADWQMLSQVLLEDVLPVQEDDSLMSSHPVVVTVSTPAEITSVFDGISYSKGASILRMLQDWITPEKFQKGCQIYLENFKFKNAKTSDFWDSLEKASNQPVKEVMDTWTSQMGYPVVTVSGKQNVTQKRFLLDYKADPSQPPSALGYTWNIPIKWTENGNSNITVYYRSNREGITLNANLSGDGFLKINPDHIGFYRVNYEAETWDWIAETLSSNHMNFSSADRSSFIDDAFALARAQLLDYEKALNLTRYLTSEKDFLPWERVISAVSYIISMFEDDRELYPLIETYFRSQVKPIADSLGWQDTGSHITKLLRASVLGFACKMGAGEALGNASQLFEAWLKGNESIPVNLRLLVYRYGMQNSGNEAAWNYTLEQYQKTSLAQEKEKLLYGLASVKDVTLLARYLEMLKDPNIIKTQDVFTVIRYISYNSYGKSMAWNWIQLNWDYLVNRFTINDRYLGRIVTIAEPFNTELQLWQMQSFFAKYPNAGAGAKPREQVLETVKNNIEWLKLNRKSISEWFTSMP
Protocol: Specificity of Apstatin--Apstatin was assayed for its ability to inhibit several other peptidases. […] Unless otherwise indicated, the source of each enzyme activity was a detergent extract of bovine lung prepared as described in (12-13). Activities were determined by a modification of the fluorescent assay described above (indicated by "FLUO") or by HPLC separation and quantitation of reaction products using the method described in (12) (method "HPLC-1") or the method described below (method "HPLC-2"). […]

[3] = target: T3, purified bovine lung membrane-bound aminopeptidase P (Bos taurus, UniProt E1B735); test: Aminopeptidase P inhibition, release of arginine from Arg-Pro-Pro (fluorescent assay)
T3 construct: from tissue; host or cells: bovine lung
T3 sequence (E1B735 22-673): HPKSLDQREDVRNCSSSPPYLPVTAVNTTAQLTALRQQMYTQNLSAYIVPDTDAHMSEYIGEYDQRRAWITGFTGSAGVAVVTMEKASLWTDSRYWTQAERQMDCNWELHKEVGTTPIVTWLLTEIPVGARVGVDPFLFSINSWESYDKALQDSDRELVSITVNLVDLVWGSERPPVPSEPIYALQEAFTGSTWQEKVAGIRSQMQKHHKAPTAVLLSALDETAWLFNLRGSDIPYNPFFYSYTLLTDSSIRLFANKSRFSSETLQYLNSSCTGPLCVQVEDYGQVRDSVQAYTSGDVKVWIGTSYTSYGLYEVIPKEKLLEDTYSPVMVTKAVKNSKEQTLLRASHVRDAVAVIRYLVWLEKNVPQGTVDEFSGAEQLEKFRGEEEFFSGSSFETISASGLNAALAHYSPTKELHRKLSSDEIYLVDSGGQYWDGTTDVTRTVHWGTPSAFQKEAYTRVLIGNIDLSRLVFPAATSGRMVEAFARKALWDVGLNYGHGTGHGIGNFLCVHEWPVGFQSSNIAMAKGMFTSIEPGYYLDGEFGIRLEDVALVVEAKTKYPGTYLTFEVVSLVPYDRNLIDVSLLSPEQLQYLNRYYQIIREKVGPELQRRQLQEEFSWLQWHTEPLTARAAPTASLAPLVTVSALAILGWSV
Protocol: The IC50 of the compound of the present invention in relation to aminopeptidase P was also determined. […] The specificity of the compound of the present invention for other aminopeptidases was similarly determined as described in the Experimental Procedures herein. […] The following enzymes had IC50 values>800 μM: aminopeptidase A, angiotensin converting enzyme, dipeptidyl-peptidase I-like activity, bestatin-sensitive/amastatin-insensitive membrane dipeptidase (29), microsomal dipeptidase, endopeptidase 24.11, endopeptidase 24.15, and prolyl oligopeptidase.
as §1, §2

T1 sequence (P15034 whole entry): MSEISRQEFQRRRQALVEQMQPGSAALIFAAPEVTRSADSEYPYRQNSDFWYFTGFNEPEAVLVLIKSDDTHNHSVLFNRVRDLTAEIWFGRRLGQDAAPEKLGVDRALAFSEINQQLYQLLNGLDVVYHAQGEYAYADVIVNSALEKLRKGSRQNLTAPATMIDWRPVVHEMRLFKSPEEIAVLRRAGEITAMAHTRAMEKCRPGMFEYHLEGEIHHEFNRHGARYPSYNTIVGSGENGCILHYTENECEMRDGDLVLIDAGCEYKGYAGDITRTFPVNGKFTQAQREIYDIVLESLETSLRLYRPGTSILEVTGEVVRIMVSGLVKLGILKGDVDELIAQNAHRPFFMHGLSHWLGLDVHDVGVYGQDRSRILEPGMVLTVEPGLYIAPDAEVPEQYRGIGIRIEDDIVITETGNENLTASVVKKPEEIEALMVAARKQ

With `C[C@H](NC(=O)[C@@H]1CCCN1C(=O)[C@@H]1CCCN1C(=O)[C@@H](O)[C@H](N)Cc1ccccc1)C(N)=O` [apstatin, N-[(2S, 3R)-3-amino-2-hydroxy-4-phenylbutanoyl]-L-prolyl-L-prolyl-Lalaninamide] the “α (αKi = equilibrium constant for enzyme-inhibitor binding at infinite substrate concentration)” value ([1]; E. coli, recombinant) was 2.5, the Ki ([1]; E. coli, recombinant, substrate Arg-Pro-Pro, 0.1 M Hepes pH 8.0, 39° C.) was 14 µM and the type of inhibition ([1]; recombinant E. coli aminopeptidase P) was “linear mixed-type”. The IC50 [2] was greater than 800 µM, the IC50 ([3]; bovine lung aminopeptidase P, cleavage of 0.5 μM Arg-Pro-Pro in 0.1M Hepes, pH 8.0 at 37° C.) was 9.4 µM and the type of inhibition ([3]; bovine lung aminopeptidase P, slope and 1/v-axis intercept replots) was “linear mixed-type”. For the same compound, the “α (αKi = equilibrium constant for enzyme-inhibitor binding at infinite substrate concentration)” value ([3]; bovine lung, purified membrane-bound form) was 4.2 and the Ki ([3]; bovine lung, purified membrane-bound form, substrate Arg-Pro-Pro, 0.1 M Hepes pH 8.0, 39° C.) was 7.8 µM.
